Reference: patent publication US11058668B2 (EIDOS THERAPEUTICS, INC., priority 2018, dated 2021)
Like-named read-outs stand apart in the source and are kept apart here.

Key:
[1] = biological target: TTR (Homo sapiens, UniProt P02766); assay: Phase 2 study in ATTR-CM patients, serum TTR concentration (ARUP Prealbumin assay); type: in vivo; design: monitoring TTR serum concentrations in trial participants; from tissue; host or cells: serum / plasma of ATTR-CM patients; conditions: WT
Description: Screening and randomization will be followed by a 28-day blinded, placebo-controlled treatment period. Approximately 45 subjects are planned to enroll in the Phase 2 study.
An ARUP Prealbumin assay was also used to analyze TTR blood serum concentration in the MAD cohorts tested. ARUP analyzes samples for prealbumin using the prealbumin reagent kit provided by Roche Diagnostics and run on the Roche Diagnostics c702 module. Lowest reportable limit is 3 mg/dL.
The phase 2 clinical study was performed essentially as described in Example 3. A total of 49 patents were included instead of 45: 16 receiving 400 mg bid; 16 receiving 800 mg bid; and 17 receiving placebo.
TTR stabilization was measured ex vivo using the FPE and Western blot assays described at the beginning of the examples section. TTR stabilization was measured in vivo by monitoring TTR serum concentrations in trial participants.

[2] = Phase 1 (AG10-001) single ascending dose pharmacokinetics; type: in vivo, human; conditions: for Cmax / Tmax / concentration at 24 hr / AUC(0-t) / AUC(0-inf) / half-life: human, plasma; for concentration at 24 hr: read-out: C24
Description: Quantitation was performed using a weighted 1/x^2 linear least squares regression analysis generated from calibration standards prepared on the day of extraction.
One of the SAD cohorts received two 300 mg doses, one under fasted conditions and the other following a high fat test meal after an appropriate washout period.

[3] = Phase 1 (AG10-001) multiple ascending dose pharmacokinetics; type: in vivo, human; conditions: for Cmax / Tmax / AUC(0-t): human, plasma, oral, geometric mean; for AUC(0-t): read-out: AUC0-12
Description: Quantitation was performed using a weighted 1/x^2 linear least squares regression analysis generated from calibration standards prepared on the day of extraction. […]

[4] = biological target: T1, TTR (Canis lupus familiaris, UniProt A0A8I3NFK0); assay: 7-day repeat oral dosing in dogs, TTR occupancy by FPE; type: in vivo, beagle dog
T1 construct: from tissue; host or cells: serum of orally dosed beagle dogs
Description: FPE assay for binding TTR in buffer and human or dog serum. […] The FPE probe is a thioester TTR ligand that is not fluorescent by itself, however upon binding to the T4 binding site of TTR it covalently modifies lysine 15 (K15), creating a fluorescent conjugate. Ligands that bind to the T4 site of TTR will decrease FPE probe binding as observed by lower fluorescence. The FPE assay was also adapted for use with dog serum. FPE with TTR in buffer: An aliquot of 98 μL of TTR in PBS (pH 7.4, final concentration: 2.5 μM) was mixed with 1 μL of test compounds (2.5 μM) and 1 μL of FPE probe (0.18 mM stock solution in DMSO: final concentration: 1.8 μM). The change in fluorescence (λex=328 nm and λem=384 nm) were monitored using a microplate spectrophotometer reader (SpectraMax M5) for 6 hr at rt. […] The change in fluorescence (λex=328 nm and λem=384 nm) were monitored using a microplate spectrophotometer reader (SpectraMax M5) for 6 hr at rt.
Blood (approximately 1.5 mL) was collected from a jugular vein into serum separator tubes on study day 1 (predose D1), pre-dose study day 7 (predose D7), and at 1 hr post-dose study day 7 (postdose D7). These serum samples were analyzed for their TTR occupancy using the FPE assay described above.

[5] = both sexes, oral, 300 mg, SAD Cohort 3, 300 mg, Fasted, geometric mean
[6] = both sexes, oral, 300 mg, SAD Cohort 3, 300 mg, Fed (high fat test meal), geometric mean
[7] = both sexes, po, 50 mg, single oral dose 50 mg AG10 HCl, healthy subjects, geometric mean ± SD
[8] = both sexes, po, 150 mg, single oral dose 150 mg AG10 HCl, healthy subjects, geometric mean ± SD
[9] = both sexes, po, 300 mg, single oral dose 300 mg AG10 HCl, healthy subjects, geometric mean ± SD
[10] = both sexes, po, 800 mg, single oral dose 800 mg AG10 HCl, healthy subjects, geometric mean ± SD

Cc1n[nH]c(C)c1CCCOc1cc(C(=O)O)ccc1F [AG10, 3-(3-(3,5-dimethyl-1H-pyrazol-4-yl)propoxy)-4-fluorobenzoic acid]
Blood Serum TTR Concentration, Average Change ([1]; 400 mg b.i.d.): 32%
Blood Serum TTR Concentration, Average Change ([1]; 800 mg b.i.d.): 35%
food effect on the pharmacokinetics ([2]; 300 mg, fed versus fasted state): minimal food effect
mean Tmax ([2]; SAD cohorts 1-4, 50-800 mg AG10 HCl oral): under one
Cmax [2, 5]: 15.1 µM
Tmax [2, 5]: 42.4 min
concentration at 24 hr [2, 5]: 2.19 µM
Cmax [2, 6]: 10.2 µM
Tmax [2, 6]: 95.4 min
AUC(0-t) ([2]; both sexes, oral, 300 mg, SAD Cohort 3, 300 mg, Fed (high fat test meal), geometric mean, read-out: AUC0-24): 111 µM·h
concentration at 24 hr [2, 6]: 2.69 µM
AUC(0-inf) ([2]; both sexes, po, 50 mg): 97.1 ± 12.1 µM·h
Cmax [2, 7]: 7.2 ± 0.72 µM
Tmax [2, 7]: 53.5 ± 44.2 min
AUC(0-t) ([2]; both sexes, po, 50 mg, single oral dose 50 mg AG10 HCl, healthy subjects, geometric mean ± SD, read-out: AUC0-24): 58.9 ± 4.09 µM·h
AUC(0-t) ([2]; both sexes, po, 50 mg, single oral dose 50 mg AG10 HCl, healthy subjects, geometric mean ± SD, read-out: AUClast): 95 ± 11.8 µM·h
concentration at 24 hr [2, 7]: 1.05 ± 0.13 µM
half-life ([2]; both sexes, po, 50 mg, read-out: T1/2 (converted)): 1500 ± 175 min
AUC(0-inf) ([2]; both sexes, po, 150 mg): 168 ± 46.8 µM·h
Cmax [2, 8]: 11.3 ± 4.76 µM
Tmax [2, 8]: 50.9 ± 58.2 min
AUC(0-t) ([2]; both sexes, po, 150 mg, single oral dose 150 mg AG10 HCl, healthy subjects, geometric mean ± SD, read-out: AUC0-24): 93 ± 16.8 µM·h
AUC(0-t) ([2]; both sexes, po, 150 mg, single oral dose 150 mg AG10 HCl, healthy subjects, geometric mean ± SD, read-out: AUClast): 166 ± 46 µM·h
concentration at 24 hr [2, 8]: 1.78 ± 0.465 µM
half-life ([2]; both sexes, po, 150 mg, read-out: T1/2 (converted)): 1510 ± 215 min
AUC(0-inf) ([2]; both sexes, po, 300 mg): 191 ± 77 µM·h
Cmax [2, 9]: 15.1 ± 3.6 µM
Tmax [2, 9]: 42.4 ± 16.4 min
AUC(0-t) ([2]; both sexes, po, 300 mg, single oral dose 300 mg AG10 HCl, healthy subjects, geometric mean ± SD, read-out: AUC0-24): 100 ± 9.76 µM·h
AUC(0-t) ([2]; both sexes, po, 300 mg, single oral dose 300 mg AG10 HCl, healthy subjects, geometric mean ± SD, read-out: AUClast): 186 ± 73.8 µM·h
concentration at 24 hr [2, 9]: 2.19 ± 0.435 µM
half-life ([2]; both sexes, po, 300 mg, read-out: T1/2 (converted)): 1320 ± 356 min
AUC(0-inf) ([2]; both sexes, po, 800 mg): 414 ± 87.5 µM·h
Cmax [2, 10]: 37.8 ± 11.3 µM
Tmax [2, 10]: 47.6 ± 15.5 min
AUC(0-t) ([2]; both sexes, po, 800 mg, single oral dose 800 mg AG10 HCl, healthy subjects, geometric mean ± SD, read-out: AUC0-24): 176 ± 27.7 µM·h
AUC(0-t) ([2]; both sexes, po, 800 mg, single oral dose 800 mg AG10 HCl, healthy subjects, geometric mean ± SD, read-out: AUClast): 410 ± 81.7 µM·h
concentration at 24 hr [2, 10]: 4.51 ± 0.565 µM
half-life ([2]; both sexes, po, 800 mg, read-out: T1/2 (converted)): 1610 ± 509 min
half-life ([2]; both sexes, po, read-out: elimination half-life): 1320 to 1620 min
AUC(0-t) ([2]; oral, 300 mg, SAD Cohort 3, 300 mg, Fasted, geometric mean, read-out: AUC0-24): 99.6 µM·h
accumulation over 12 days of dosing ([3]; 100, 300, 800 mg every 12 hr for 12 days): No significant accumulation
Cmax ([3]; 100 mg, 100 mg q12 h, Day 1): 8.67 µM
Tmax ([3]; 100 mg, 100 mg q12 h, Day 1): 47.6 min
AUC(0-t) ([3]; 100 mg, 100 mg q12 h, Day 1): 46.3 µM·h
Cmax ([3]; 100 mg, 100 mg q12 h, Day 12): 12.1 µM
Tmax ([3]; 100 mg, 100 mg q12 h, Day 12): 33.7 min
AUC(0-t) ([3]; 100 mg, 100 mg q12 h, Day 12): 70.3 µM·h
Cmax ([3]; 300 mg, 300 mg q12 h, Day 1): 14.3 µM
Tmax ([3]; 300 mg, 300 mg q12 h, Day 1): 42.4 min
AUC(0-t) ([3]; 300 mg, 300 mg q12 h, Day 1): 65.2 µM·h
Cmax ([3]; 300 mg, 300 mg q12 h, Day 12): 23.5 µM
Tmax ([3]; 300 mg, 300 mg q12 h, Day 12): 33.7 min
AUC(0-t) ([3]; 300 mg, 300 mg q12 h, Day 12): 97.7 µM·h
Cmax ([3]; 800 mg, 800 mg q12 h, Day 1): 31.8 µM
Tmax ([3]; 800 mg, 800 mg q12 h, Day 1): 47.6 min
AUC(0-t) ([3]; 800 mg, 800 mg q12 h, Day 1): 120 µM·h
Cmax ([3]; 800 mg, 800 mg q12 h, Day 12): 42.5 µM
Tmax ([3]; 800 mg, 800 mg q12 h, Day 12): 53.5 min
AUC(0-t) ([3]; 800 mg, 800 mg q12 h, Day 12): 159 µM·h
TTR occupancy at the steady state trough ([4]; 50, 100, 200 mg/kg/d oral, day 7 pre-dose): 81-94%
TTR occupancy at steady state Cmax ([4]; all AG10 treated groups, day 7 post-dose (1 hr)): > 97%
